Measurements reported in ChEMBL document CHEMBL1124372, “Thienothiopyran-2-sulfonamides: novel topically active carbonic anhydrase inhibitors for the treatment of glaucoma” (J Med Chem, 1989).
pIC50, pKi: −log10 of the molar value. Several values for one entry are separate records, joined by “and”; a condition that tells them apart may be missing. Equal entries are not always repeated.

Experiments:
[1] = Binding of 10 phosphate buffer; type: protein assay; conditions: Bos taurus
[2] = The aqueous solubility in 2% solution was determined; soluble; type: physicochemical; conditions: buffer
Oryctolagus cuniculus = species: Oryctolagus cuniculus; test: Maximum fall in ocular hypertension in the right eye of albino rabbits; type: functional
Carbonic anhydrase 2 [3] = biological target: T1, Carbonic anhydrase 2 (Homo sapiens, UniProt P00918)
[4] = The aqueous solubility in 2% solution was determined; insoluble; type: physicochemical; conditions: buffer
Carbonic anhydrase 2 [5] = biological target: T1, Carbonic anhydrase 2; remark: listed apart in the source
Carbonic anhydrase 2 [6] = biological target: T1, Carbonic anhydrase 2; remark: listed apart in the source
[7] = The aqueous solubility in 2% (+ = soluble, - = insoluble) solution was determined; type: physicochemical; conditions: buffer

## NS(=O)(=O)c1cc2c(s1)S(=O)(=O)CCC2O (stereo not drawn)
[1]
  Binding: 1.9%
[2]
  Aqueous solubility: Soluble
Oryctolagus cuniculus
  Activity: -6.9 mmHg

## CC(C)CN[C@H]1CCS(=O)(=O)c2sc(S(N)(=O)=O)cc21
[1]
  Binding: 12.3% and 12.8%

## CC(C)CN[C@H]1CCS(=O)(=O)c2sc(S(N)(=O)=O)cc21.Cl [SEZOLAMIDE HYDROCHLORIDE]
[2]
  Aqueous solubility: Soluble
Oryctolagus cuniculus
  Activity: -6.5 mmHg

## CC(C)CN[C@@H]1CCS(=O)(=O)c2sc(S(N)(=O)=O)cc21.Cl
[2]
  Aqueous solubility: Soluble
Oryctolagus cuniculus
  Activity: -1.3 mmHg

## CCCNC1CCS(=O)(=O)c2sc(S(N)(=O)=O)cc21.Cl (stereo not drawn)
[1]
  Binding: 19.8%
Carbonic anhydrase 2 [3]
  pKi: 8.96
[4]
  Aqueous solubility: Insoluble
Carbonic anhydrase 2 [5]
  pIC50: 8.82
Oryctolagus cuniculus
  Activity: -8.7 mmHg
Carbonic anhydrase 2 [6]
  pIC50: 8.04

## CNC1CCS(=O)(=O)c2sc(S(N)(=O)=O)cc21.Cl (stereo not drawn)
[1]
  Binding: 23.7%
Carbonic anhydrase 2 [3]
  pKi: 8.64
Carbonic anhydrase 2 [5]
  pIC50: 8.60
[7]
  Aqueous solubility: Soluble
Oryctolagus cuniculus
  Activity: -3.3 mmHg
Carbonic anhydrase 2 [6]
  pIC50: 7.86

## CCCCNC1CCS(=O)(=O)c2sc(S(N)(=O)=O)cc21.Cl (stereo not drawn)
[1]
  Binding: 25.6%
Carbonic anhydrase 2 [3]
  pKi: 8.74
[4]
  Aqueous solubility: Insoluble
Carbonic anhydrase 2 [5]
  pIC50: 8.64
Oryctolagus cuniculus
  Activity: -5.7 mmHg
Carbonic anhydrase 2 [6]
  pIC50: 7.91

## CCNC1CCS(=O)(=O)c2sc(S(N)(=O)=O)cc21.Cl (stereo not drawn)
[1]
  Binding: 29.2%
[2]
  Aqueous solubility: Soluble
Oryctolagus cuniculus
  Activity: -4.2 mmHg

## CCN(CC)C1CCS(=O)(=O)c2sc(S(N)(=O)=O)cc21.Cl (stereo not drawn)
[1]
  Binding: 9%
[2]
  Aqueous solubility: Soluble
Carbonic anhydrase 2 [3]
  pKi: 8.03
Carbonic anhydrase 2 [5]
  pIC50: 7.91
Oryctolagus cuniculus
  Activity: -5.3 mmHg
Carbonic anhydrase 2 [6]
  pIC50: 7.15

## Cl.NC1CCS(=O)(=O)c2sc(S(N)(=O)=O)cc21 (stereo not drawn)
[1]
  Binding: 32.1%
[2]
  Aqueous solubility: Soluble
Carbonic anhydrase 2 [3]
  pKi: 8.43
Carbonic anhydrase 2 [5]
  pIC50: 8.49
Oryctolagus cuniculus
  Activity: -3.3 mmHg
Carbonic anhydrase 2 [6]
  pIC50: 8.04

## CC(C)CN[C@H]1CCS(=O)(=O)c2sc(S(N)(=O)=O)cc21 [SEZOLAMIDE]
[2]
  Aqueous solubility: Soluble
Oryctolagus cuniculus
  Activity: -4.3 mmHg
